Test results taken from a melting point compilation (Tetko et al.; mined from patent text by program, amines drawn as free bases though some values may be those of a salt).

Row | melting point [°C] | SMILES
1 | 204 to 205 | CN1NN=C(c2ccc3c(c2)S(=O)(=O)c2ccccc2C3=O)N1
2 | 126 to 136 | COc1cc(C(=O)NS(=O)(=O)c2ccccc2Cl)ccc1Cc1c(Cl)n(C)c2ccc(CC(C)NC(=O)N(C)C)cc12 (stereo not drawn)
3 | 171 to 173 | CCOc1ccccc1-c1ccc2c(c1)C=C(C(=O)Nc1ccc(CN(C)C3CCOCC3)cc1)CCS2(=O)=O
4 | 226 to 228 | NC(=O)c1ccc(C(=O)N2Cc3cccn3Cc3ccccc32)cc1
5 | 218 | Cc1cccc(-c2nc3ccc(O)cc3n2Cc2ccccc2Br)c1
6 | 178 to 180 | O=C(Nc1ccc(-n2nc(C(F)(F)F)cc2C(F)(F)F)cc1)C1CCCCC1
7 | 194 to 195 | CCCOc1ccc(CN/C=C2\C(=O)NC(=O)c3ccc(-c4ccc(F)cc4)cc32)cc1O
8 | 58 to 60 | CC(C)(C)c1cnc(-c2nn(-c3ccc(F)cc3F)c3c2C2CCC3C2)o1 (stereo not drawn)
9 | 300 to 301 | CC(C)(C)c1ccc(C(=O)Nc2cn3cc(C#N)ccc3n2)cc1
10 | 76 | CC(C)(C)OC(=O)N1CCN(C(=O)c2cccs2)CC1
11 | 130 | CCCCc1oc2ccccc2c1C(=O)c1ccc(NS(=O)(=O)c2cccnc2)cc1
12 | 134 to 135 | COCc1c(C(=O)OC)ncc2[nH]c3ccccc3c12
13 | 223 to 228 | O=C(O)c1cc2cc(O)ccc2o1
14 | 135 to 137 | COc1ccc2[nH]c(C=Cc3ccccc3Cl)cc2c1
15 | 152 to 153 | CC(=O)c1c(C)nc(N(Cc2ccccc2)Cc2ccccc2)c(N)c1NCCc1ccccc1
16 | 174 | COC(=C1NC(=O)C(=NO)C1=O)c1ccccc1
17 | 173 to 174 | Cc1oc(-c2ccc3ccccc3c2)nc1/C=C/c1ccc(CO)cc1
18 | 180 to 183 | CCOc1csc2c(O)c(SC)cnc12
19 | 91 to 93 | CNC(=O)c1cnc(Cl)cc1-c1ccccc1C
20 | 256 to 258 | CC(C)(C)[Si](C)(C)OC1CN(S(C)(=O)=O)Cc2nc3c(N)nc4ccccc4c3n2C1 (stereo not drawn)
21 | 145 | COc1ccc(C2CSc3ccccc3NC2=O)cc1 (stereo not drawn)
22 | 89 to 92 | NC(=S)NN=C(CCC(=O)NC1CCCCC1)c1ccccc1

Row | melting point [°C] | SMILES
23 | 98 to 99 | Nc1cccc(Oc2ccc(Oc3cccc(N)c3)cc2)c1
24 | 173 to 175 | Cc1cc(C(=O)N2Cc3cccn3Cc3ccccc32)ccc1C1=CCCCC1
25 | 204 to 206 | O=C(c1[nH]c2ccc(F)cc2c1Sc1ccccn1)N1CCCC1
26 | 168 | Cc1ncn(Nc2cccc(Cl)c2)c1-c1cccc(Cl)c1
27 | 117 to 118 | Cn1nc(CNS(C)(=O)=O)nc1NCCCOc1cccc(CN2CCCCC2)c1
28 | 119 to 120 | CCOC(=O)c1cc2c(nc1C)C(=Cc1ccco1)CCC2
29 | 178 to 179 | Cc1ccc(-c2ccc3c(c2)C=C(C(=O)Nc2ccc(CN(C)C4CCOCC4)cc2)CC(c2ccccc2)O3)cc1 (stereo not drawn)
30 | 155 to 158 | CN1C(=O)C(Br)=C(c2cn(C)c3ccccc23)C1=O
31 | 171 to 172 | Cc1nc(NC(=O)c2ccncc2)sc1C(=O)NCc1ccccc1
32 | 164 to 167 | COc1cccc(C2C=C(C)NC3=C2C(=O)CCC3)c1 (stereo not drawn)
33 | 187 to 188 | Oc1ccc(F)cc1-c1cc(-c2ccc(-c3ccccc3)cc2)cc(-c2ccc3ccccc3c2)n1
34 | 154 to 156 | COc1ccc2c(c1)c1c(n2Cc2ccccc2)CCCC1C(N)=O (stereo not drawn)
35 | 278 to 280 | O=C1CCC(N2Cc3cc(CNC(=O)Nc4ccc(Br)cc4)ccc3C2=O)C(=O)N1 (stereo not drawn)
36 | 217 to 219 | NC(=O)[C@@H]1[C@H](Nc2c(Br)cnc3[nH]c(-c4ccc(CN5CCOCC5)cc4)nc23)[C@H]2C=C[C@@H]1C2
37 | 195 to 198 | O=C(O)C1CCc2c(sc3cc(F)ccc23)C1 (stereo not drawn)
38 | 242 to 246 | O=C(O)c1ccc(Cl)c(S(=O)(=O)c2ccccc2[N+](=O)[O-])c1
39 | 272 to 274 | C=Cn1cc(C(=O)O)c(=O)c2cc(Cl)c(N3CCNCC3)nc21
40 | 157 to 159 | CCc1nc(/C=C/c2cn(-c3ccccc3)nc2O)co1
41 | 171 to 173 | CN(CCCOc1ccc(CC2SC(=O)NC2=O)cc1)c1nc2ccccc2o1 (stereo not drawn)
42 | 141 | O=c1c2ccccc2n(CCCCl)c2ccc(Cl)cc12
43 | 160 to 162 | CN1N=C(c2ccc(F)cc2)c2ccc(C(F)(F)F)cc2CS1(=O)=O
44 | 133 to 135 | COc1ccc2cc(-c3ccc(C#C[Si](C)(C)C)cc3)[nH]c(=O)c2c1

Continued, molecule first:

Row | SMILES | melting point [°C]
45 | CCC(Cl)CCC(=O)c1cc(OC)c(OC)cc1F (stereo not drawn) | 81 to 82
46 | CN1C(=O)C(C)(C)N=C(c2ccccc2Cl)c2cc([N+](=O)[O-])cc(Cl)c21 | 254
47 | CC(C)(C)Nc1c(NCc2ccc(OC(F)(F)F)cc2)c(=O)c1=O | 292 to 294
48 | CCCCCCCCN1CC(C(=O)OC)N(S(=O)(=O)c2ccc(NC(=O)c3ccc(Cl)cc3)cc2)CC1=O (stereo not drawn) | 171 to 173
49 | O=C(c1ccccc1)c1ccccc1SSc1ccccc1C(=NO)c1ccccc1 | 191 to 193
50 | Cn1nc(-c2cc(O)c(C#N)cc2F)c(Cl)c1C(F)(F)F | 151
51 | CC(=O)CS(=O)(=O)CCc1ccc2c(c1)OCO2 | 97 to 99
52 | COc1cc2c(cc1O)CCN(Cc1cc(OC)c(OC)cc1OC)C2 | 152 to 153
53 | O=Cc1ccnc(OCC=CCNC(=O)CS(=O)Cc2ccco2)c1 (stereo not drawn) | 67.6 to 69.9
54 | O=C(NC(c1ccccc1)C(O)C(=O)OCc1ccccc1)c1ccccc1 (stereo not drawn) | 129 to 131
55 | CC1CCc2c(C#N)c(F)cc3c(=O)c(C(=O)O)cn1c23 (stereo not drawn) | 300
56 | COc1ccc(Cl)cc1-c1nnn(-c2ccc(C(F)(F)F)cc2Cl)c1N | 153
57 | CCCN(c1cc(Cl)ncn1)n1cccc1 | 52 to 54
58 | CCC(F)c1cc(N2CCNCC2)cc(-c2ccccc2C#N)c1Cl (stereo not drawn) | 159
59 | CC(=O)SCC1(CSC(C)=O)C(=O)N2CCCC(C(=O)OC(C)(C)C)N2C1=O (stereo not drawn) | 85 to 86
60 | COCCOc1c(C)cc(C#CC2(O)CN3CCC2CC3)cc1C (stereo not drawn) | 120
61 | CCCCC(=O)N(c1ccn(C)n1)C1CCCCC1 | 97.5 to 98
62 | CCCN(CCC)c1ccc(Cl)nn1 | 49 to 51
63 | Cc1ccccc1NC(=O)N(C)C | 139 to 143
64 | CC(C)(C)OC(=O)/C(=C/c1ccc2ccccc2c1)C(=O)c1ccccc1O | 111 to 112
65 | Cn1c(S(=O)(=O)CCO)nnc1S(=O)(=O)CCO | 176 to 177
66 | CCn1nc(C)c([N+](=O)[O-])c1C(N)=O | 175 to 177
67 | O=C(CP(=S)(c1ccccc1)c1ccccc1)c1ccccc1 | 83 to 84
68 | Cc1c(O)cccc1C(=O)N[C@@H](Cc1ccccc1)[C@H](O)C(=O)N1CSC(C)(C)[C@H]1C(=O)N[C@@H]1CCOc2ccccc21 | 135 to 136
69 | CCC(=O)c1cc(F)c(OCC2CC2(Cl)Cl)cc1F (stereo not drawn) | 89 to 91
70 | COc1cc(Nc2c(C#N)cnc3cc4cc(OC)c(OCCN5CCC(O)CC5)cc4cc23)c(Cl)cc1Cl | 150 to 160
71 | CC(=O)Nc1ccc(C)cc1Oc1c([N+](=O)[O-])cc(C(=O)O)cc1S(N)(=O)=O | 238 to 240

Row | SMILES | melting point [°C]
72 | CCC1(CCSC(C)=O)C(=O)N2CCCC(C(=O)O)N2C1=O (stereo not drawn) | 110 to 111
73 | CCOC(=O)C1=C(N)NC2=C(C(=O)CCC2)C1c1cc(OC)c(OC)cc1[N+](=O)[O-] (stereo not drawn) | 261
74 | N#Cc1ccc(-c2ccc(OCCCCCCC(=O)NO)cc2)cc1 | 79 to 82
75 | COC(=O)[C@H](CC(C)C)NC(=O)OCC1c2ccccc2-c2ccccc21 | 86 to 87
76 | C#C[C@]1(OC(C)=O)CC[C@H]2[C@@H]3CC(=C)C4=CC(=O)CC[C@@H]4[C@H]3CC[C@@]21C | 157
77 | COc1cc2c(cc1Nc1ncc(Cl)c(NC3(C(=O)NCC#N)CC3)n1)CCN(CC(=O)N(C)C)CC2 | 120 to 128
78 | Cc1cc(Cl)cc(C(=O)NCC2CCO2)c1NC(=O)c1cc(Br)nn1-c1ncccc1Cl (stereo not drawn) | 95 to 97
79 | CCOC(=O)C(=O)C1C(=O)c2c(OC)ccc3c2C1CCO3 (stereo not drawn) | 104 to 106
80 | N#Cc1cn(C[C@@H]2CN(c3ccc(N4CCC5(CC4)OCCO5)c(F)c3)C(=O)O2)nn1 | 158 to 160
81 | CCN(CC)C(=O)COC(=O)c1ccc(N)cc1 | 135 to 136
82 | CCCOC(=O)c1cc(-n2c(OC)nc(C(F)(F)F)c(F)c2=O)c(F)cc1Cl | 76 to 78
83 | Cc1cc(Cn2nnn(-c3cc(C(F)(F)F)cc(C(F)(F)F)c3)c2=O)ccc1N | 129 to 130
84 | OCc1coc(-c2cccs2)n1 | 98 to 99
85 | CCNC(=O)C(=O)[C@H](Cc1ccccc1)NC(=O)[C@H](CC(C)C)NC(=O)O[C@H]1CCOC1 | 159 to 161
86 | CCCSc1ncnc2c1ncn2C1CC(F)C(CO)O1 (stereo not drawn) | 85 to 86
87 | COC(=O)C=Cc1c(C(=O)OC)c2c(n1C)C(=O)C=C(OC)C2=O | 235 to 236
88 | CCOc1cc2cc3c(Nc4cc(OC)c(Cl)cc4C)c(C#N)cnc3cc2cc1OCCN(CC(N)=O)CC(N)=O | 168 to 170
89 | N#Cc1[nH]c(=O)n(-c2ccc(Cl)cc2)c1C#N | 242 to 245
90 | NS(=O)(=O)c1cccc(-c2cccc(-c3nc(-c4ccc(C(F)(F)F)c(F)c4)cc(C(F)(F)F)n3)c2)c1 | 228
91 | Cc1c(F)c(F)c(N)c2c(=O)c(C(=O)O)cn(-c3nc(N)c(F)cc3F)c12 | 250
92 | Cc1noc(-c2ccc(Cl)cc2)c1-c1ccc(S(N)(=O)=O)cc1 | 194 to 197
93 | COc1ccc(C(=O)O)cc1CCCN(C)C | 135 to 138
94 | C=CCC(CC=C)(CC=C)C(=O)O[C@H]1C[C@H](O)C=C2C=C[C@H](C)[C@H](CC[C@@H]3C[C@@H](O)CC(=O)O3)[C@H]21 | 118 to 119
95 | COc1ccc(Br)c(O)c1 | 40 to 42
96 | O=P(CN(O)Cc1ccccc1)(OCc1ccccc1)OCc1ccccc1 | 62 to 64
97 | C[C@@H](Cc1cc(F)cc2ccoc12)NC(=O)OC(C)(C)C | 120 to 121
98 | Cc1nc(CN(C)C(=O)N[C@H](C(=O)N[C@@H](Cc2ccccc2)C[C@H](O)[C@H](Cc2ccccc2)NC(=O)OCc2cccnc2)C(C)C)cs1 | 69 to 72
